{"source": "patent EP0831835B1", "about": "“TREATING ANOREXIA” (ELI LILLY AND COMPANY, priority 1995, dated 1996)", "key": {"rodents": {"tested_on": "rodents", "assay": "animal studies in rodents (food intake / weight)", "format": "in vivo, Male Sprague Dawley CD rats", "conditions": "many such animals", "experimental": "Male Sprague Dawley CD rats (Charles River, Wilmington, Mass.) are individually housed in cages with ad libitum access to Animal Chow and tap water. Temperature is maintained at approximately 21° C. Rats are adapted to vivarium conditions for at least a week before tests begin.\nAt the start of the experiments, the rats are weighed. […] Tests are conducted every 3-4 days. Food intake (± 0.1 g) is recorded hourly for the 5 h after intubation and after 24 h."}, "[1]": {"tested_on": "muscarinic cholinergic receptor", "conditions": "results of pharmacological studies"}, "[2]": {"assay": "detection of radiolabelled compound in saliva", "format": "in vivo", "experimental": "For example, in the treatment of adult humans, dosages of from about 0.25 to 50 mg, preferably from 1 to 30 mg, and most preferably 1 to 20 mg per day may be used. A once a day dosage is normally sufficient, although divided doses may be administered. For treatment of cognitive dysfunction, a dose range of from 1 to 30 mg, preferably 1 to 20 mg per day is suitable."}, "human subjects": {"tested_on": "human subjects", "assay": "double blind multicenter clinical trial versus haloperidol", "format": "in vivo", "conditions": "1,996 human subjects, 5-20 mg/day, 6 weeks", "from_the_text": "Another double blind multicenter clinical trial was completed using 1,996 human subjects. […] The study continued for 6 weeks, with possible extensions."}, "human patients": {"tested_on": "human patients", "assay": "double-blind multicenter clinical trial versus placebo", "format": "in vivo", "conditions": "human patients randomized to compound or placebo"}, "5-HT1C receptor": {"biological_target": "T1, 5-HT1C receptor (Homo sapiens, UniProt P28335)", "T1 sequence (P28335 33-458)": "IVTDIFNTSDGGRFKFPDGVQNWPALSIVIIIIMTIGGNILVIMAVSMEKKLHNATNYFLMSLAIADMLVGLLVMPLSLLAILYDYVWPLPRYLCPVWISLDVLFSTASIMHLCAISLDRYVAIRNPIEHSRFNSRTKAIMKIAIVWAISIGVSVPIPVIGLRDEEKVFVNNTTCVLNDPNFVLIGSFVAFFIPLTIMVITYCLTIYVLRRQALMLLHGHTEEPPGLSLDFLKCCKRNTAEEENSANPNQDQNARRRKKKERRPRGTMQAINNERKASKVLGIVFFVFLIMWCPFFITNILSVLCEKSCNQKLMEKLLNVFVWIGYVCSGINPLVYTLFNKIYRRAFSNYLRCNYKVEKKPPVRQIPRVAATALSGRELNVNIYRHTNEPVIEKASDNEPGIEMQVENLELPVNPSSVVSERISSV", "assay": "pharmacological studies, activity at 5-HT1C receptor"}, "dogs": {"tested_on": "dogs", "assay": "animal studies in dogs (weight)", "format": "in vivo"}}, "data": [{"smiles": "Cc1cc2c(s1)Nc1ccccc1N=C2N1CCN(C)CC1", "note": "[2-methyl-4-(4-methyl-1-piperazinyl)-10H-thieno[2,3-b][1,5]benzodiazepine]", "values": [{"measurement": "weight change", "setting": "rodents", "value": "lost weight"}, {"measurement": "muscarinic cholinergic receptor activity", "setting": "[1]", "value": "has muscarinic cholinergic receptor activity"}, {"measurement": "detection in saliva", "setting": "[2]", "value": "can be detected in the saliva"}, {"measurement": "appetite", "setting": "human subjects", "value": "increase in appetite"}, {"measurement": "weight gain", "setting": "human subjects", "value": "statistically significant dose dependent weight gain"}, {"measurement": "usefulness for the treatment of anorexia", "setting": "human patients", "value": "can be useful for the treatment of anorexia"}, {"measurement": "activity at the 5-HT1C receptor", "setting": "5-HT1C receptor", "value": "active"}, {"measurement": "effectiveness for treatment of clinically significant decrease in appetite", "setting": "dogs", "value": "would not be effective"}, {"measurement": "weight change", "setting": "dogs; many such animals", "value": "lost weight"}]}]}
